≈ marks a conversion by molar mass, not a printed value. Where “and” joins values, the source holds several entries; their conditions need not be identical. Identical values can stand only once.
How the values were obtained:
[1] = Relative stability based on solvolysis studies; format: physicochemical
[2] = tested on: Nucleic Acid; experiment: Relative fist order rate constant for alkylation at the high affinity site of DNA; format: functional
[3] = tested on: Nucleic Acid; experiment: Relative intensity of DNA alkylation at the high affinity alkylation site [5'-d(AATB)-3'] within w794 DNA at 4 degrees C, 24 h; format: functional
[4] = tested on: Nucleic Acid; experiment: Percent alkylation at the high affinity alkylation site [5'-d(AATB)-3'] within w794 DNA at 4 degrees C, 24 h; format: functional
[5] = tested on: L1210; experiment: Relative IC50 for in vitro cytotoxic activity against L1210 mouse lymphocytic leukemia; format: functional
[6] = tested on: L1210; experiment: Inhibitory concentration required for 50% in vitro cytotoxic activity was determined against L1210 mouse lymphocytic leukemia at 10 pM; format: functional, cell-based
[7] = tested on: Mus musculus; experiment: Survivors at day 18 at 29 ug/kg.day; value is given as 1/6 and no evidence of residual tumor found.; format: functional, organism-based
[8] = tested on: Mus musculus; experiment: Survivors at day 18 at 39 ug/kg.day; value is given as 4/6 and no evidence of residual tumor found.; format: functional, organism-based
[9] = tested on: Mus musculus; experiment: In vivo antitumor activity of 10 ug/kg.day subcutaneously administered compound against Ip implanted L1210 tumor in mouse; format: functional
[10] = tested on: Mus musculus; experiment: In vivo antitumor activity of 19 ug/kg.day subcutaneously administered compound against Ip implanted L1210 tumor in mouse; format: functional
[11] = tested on: Mus musculus; experiment: In vivo antitumor activity of 29 ug/kg.day subcutaneously administered compound against Ip implanted L1210 tumor in mouse; format: functional
[12] = tested on: Mus musculus; experiment: In vivo antitumor activity of 39 ug/kg.day subcutaneously administered compound against Ip implanted L1210 tumor in mouse; format: functional
[13] = tested on: Mus musculus; experiment: In vivo antitumor activity of 5 ug/kg.day subcutaneously administered compound against Ip implanted L1210 tumor in mouse; format: functional
[14] = species on record: Mus musculus; experiment: Relative cytotoxic activity against mouse L1210 leukemia; format: functional
[15] = Half-life was determined; format: ADME; conditions: human
[16] = tested on: Nucleic Acid; experiment: Percent alkylation at the high affinity alkylation site [5'-d(AATB)-3'] within w794 DNA at 4 degrees C, 24 h; range is 5-10 %; format: functional
[17] = tested on: L1210; experiment: Inhibitory concentration required for 50% in vitro cytotoxic activity was determined against L1210 mouse lymphocytic leukemia at 40 pM; format: functional, cell-based
[18] = tested on: Mus musculus; experiment: In vivo antitumor activity of 75 ug/kg.day subcutaneously administered compound against P388 leukemia in mouse; format: functional

| SMILES | Relative stability [1] | rel k [2] | Relative intensity [3] | DNA alkylation [4] [%] | Cytotoxic activity [5] | IC50 [6] [ng/mL] | Survivors [7] | Survivors [8] | T/C [9] | T/C [10] | T/C [11] | T/C [12] | T/C [13] | Relative cytotoxic activity [14] | half-life [15] [h] | DNA alkylation [16] [%] | IC50 [17] [ng/mL] | T/C [18] |
| --- | --- | --- | --- | --- | --- | --- | --- | --- | --- | --- | --- | --- | --- | --- | --- | --- | --- | --- |
| O=C(Nc1ccc2[nH]c(C(=O)N3C[C@H]4C[C@@]45C3=CC(=O)c3ccccc35)cc2c1)c1cc2ccccc2[nH]1 | 1 | 1 | 1 | 93 | 1 | 0.005 (≈ 0.01 nM) | No evidence of residual tumor found | No evidence of residual tumor found | 156 | 162 | >175 | >200 | 120 | 1 | 133 |  |  |  |
| Cc1c[nH]c2c1C13CC1CN(C(=O)c1cc4cc(NC(=O)c5cc6ccccc6[nH]5)ccc4[nH]1)C3=CC2=O (single isomer, unassigned; (+)) | 0.27 | 0.07 | 0.1 |  | 0.25 |  |  |  | 114 and 133 | 113 | 118 | 129 |  | 0.25 | 36.7 | 10 | 0.02 (≈ 0.0399 nM) | 259 |
